In patent US20250312394A1, “Lacticaseibacillus Rhamnosus DY801 and Application Thereof” (priority 2024, published 2025):
Converted amounts (≈) assume the structure as drawn. Where a name gives a salt, the structure may show the parent alone. Read-outs that look alike come from different tables or passages of the source.

What was measured:
[1] = system: Lacticaseibacillus rhamnosus DY801; assay: Antibiotic sensitivity by broth trace-dilution method (MIC); type: cell-based; conditions: for MIC: Lacticaseibacillus rhamnosus, read-out: Detected MIC; for Determination of the reading: sensitivity of DY801 to the antibiotic according to the General Standard
Description: In the present example, the sensitivity of Lacticaseibacillus rhamnosus DY801 against eight antibiotics was tested using the broth trace-dilution method according to “the General Standard of Probiotics for Food Use” (hereinafter referred as General Standard) published by the Chinese Institute of Food Science and Technology. The eight antibiotics were: tetracycline, streptomycin, ciprofloxacin hydrochloride, clindamycin, vancomycin, chloramphenicol, ampicillin and gentamicin. […] The minimum inhibitory concentration (hereinafter referred as MIC) of Lacticaseibacillus rhamnosus DY801 for each antibiotic was read after 48 hours. The strain thereof was determined to be sensitive(S), intermediate (I), resistant (R) and not required (n.r.) for the antibiotic according to the bacterial resistance criteria provided in the General Standard, and the results are shown in Table 2.

[2] = system: Lacticaseibacillus rhamnosus DY801; conditions: bacterial resistance criteria of the General Standard of Probiotics for Food Use; cited from earlier work
[3] = DY801 suspension 1×10^8 CFU/mL, anaerobic 37° C., read after 48 hours

| Molecule | MIC [1, 3] [µg/mL] | Determination of the reading [1] | MIC in the General Standard [2] [µg/mL] | Detected MIC [1, 3] [µg/mL] | MIC ([1]; DY801, 48 h) [µg/mL] |
| --- | --- | --- | --- | --- | --- |
| CC1(C)S[C@@H]2[C@H](NC(=O)[C@H](N)c3ccccc3)C(=O)N2[C@H]1C(=O)O [ampicillin] | 4 (≈ 11.4 µM) | S | 4 (≈ 11.4 µM) |  |  |
| O=C(N[C@H](CO)[C@H](O)c1ccc([N+](=O)[O-])cc1)C(Cl)Cl [chloromycetin, chloramphenicol] |  | S | 4 (≈ 12.4 µM) | 2 |  |
| O=C(O)c1cn(C2CC2)c2cc(N3CCNCC3)c(F)cc2c1=O [ciprofloxacin hydrochloride] | 64 |  |  |  |  |
| CCC[C@@H]1C[C@@H](C(=O)N[C@@H]([C@H]2O[C@H](SC)[C@H](O)[C@@H](O)[C@H]2O)[C@H](C)Cl)N(C)C1 [clindamycin] | 4 (≈ 9.41 µM) | S |  | 4 |  |
| [H]/N=C(/N)N[C@H]1[C@H](O)[C@@H](O)[C@H](O[C@@H]2O[C@@H](C)[C@](O)(C=O)[C@H]2O[C@@H]2O[C@@H](CO)[C@H](O)[C@@H](O)[C@@H]2NC)[C@@H](N/C(N)=N\[H])[C@@H]1O [streptomycin] | 32 (≈ 55 µM) | S | 32 (≈ 55 µM) |  |  |
| CN(C)[C@@H]1C(O)=C(C(N)=O)C(=O)[C@@]2(O)C(O)=C3C(=O)c4c(O)cccc4[C@@](C)(O)[C@H]3C[C@@H]12 [tetracycline] | 8 (≈ 18 µM) | S |  |  |  |
| CN[C@H](CC(C)C)C(=O)N[C@H]1C(=O)N[C@@H](CC(N)=O)C(=O)N[C@H]2C(=O)N[C@H]3C(=O)N[C@H](C(=O)N[C@H](C(=O)O)c4cc(O)cc(O)c4-c4cc3ccc4O)[C@H](O)c3ccc(c(Cl)c3)Oc3cc2cc(c3O[C@@H]2O[C@H](CO)[C@@H](O)[C@H](O)[C@H]2O[C@H]2C[C@](C)(N)[C@H](O)[C@H](C)O2)Oc2ccc(cc2Cl)[C@H]1O [vancomycin] |  |  |  |  | 64 (≈ 44.2 µM) |
| gentamicin [gentamycin] |  | S | 16 | 16 |  |
